Assay results from PubChem BioAssay (NCI).
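Grown in 96-well plates, cells were treated for 48 hours with each compound at five concentrations. Insufficient inhibition: endpoint recorded as highest concentration tested. Abbreviation: GI50, concentration required for 50% inhibition of growth. At the TGI there is no net growth.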

Legend:
Assay in all cases: NCI tumour cell line growth inhibition, 48 h
[1] = tested on: 786-0 renal
[2] = tested on: A498 renal
[3] = tested on: A549 NSCLC
[4] = tested on: ACHN renal
[5] = tested on: BT-549 breast
[6] = tested on: CAKI-1 renal
[7] = tested on: CCRF-CEM leukemia
[8] = tested on: DU-145 prostate
[9] = tested on: EKVX NSCLC
[10] = tested on: HCC-2998 colon
[11] = tested on: HCT-116 colon
[12] = tested on: HCT-15 colon
[13] = tested on: HL-60(TB) leukemia
[14] = tested on: HOP-62 NSCLC
[15] = tested on: HOP-92 NSCLC
[16] = tested on: HS 578T breast
[17] = tested on: IGROV1 ovarian
[18] = tested on: K-562 leukemia
[19] = tested on: KM12 colon
[20] = tested on: LOX IMVI melanoma
[21] = tested on: M14 melanoma
[22] = tested on: MALME-3M melanoma
[23] = tested on: MCF7 breast
[24] = tested on: MDA-MB-231 breast
[25] = tested on: MDA-MB-435
[26] = tested on: MDA-MB-468 breast
[27] = tested on: MOLT-4 leukemia
[28] = tested on: NCI-H226 lung
[29] = tested on: NCI-H23 lung
[30] = tested on: NCI-H460 lung
[31] = tested on: NCI-H522 lung
[32] = tested on: NCI/ADR-RES ovarian
[33] = tested on: OVCAR-3 ovarian
[34] = tested on: OVCAR-4 ovarian
[35] = tested on: OVCAR-5 ovarian
[36] = tested on: OVCAR-8 ovarian
[37] = tested on: PC-3 prostate
[38] = tested on: RPMI-8226 leukemia
[39] = tested on: RXF 393 renal
[40] = tested on: SF-268 CNS
[41] = tested on: SF-295 CNS
[42] = tested on: SF-539 CNS
[43] = tested on: SK-MEL-2 melanoma
[44] = tested on: SK-MEL-28 melanoma
[45] = tested on: SK-OV-3 ovarian
[46] = tested on: SN12C renal
[47] = tested on: SNB-19 CNS
[48] = tested on: SNB-75 CNS
[49] = tested on: SR leukemia
[50] = tested on: SW-620 colon
[51] = tested on: T-47D breast
[52] = tested on: TK-10 renal
[53] = tested on: U251 CNS
[54] = tested on: UACC-257 melanoma
[55] = tested on: UACC-62 melanoma
[56] = tested on: UO-31 renal

`COc1ccc(N(C)c2cc(C#N)nc3ccccc23)cc1/C=C/C(=O)NO` showed a GI50 [1] of under 10 nM, a TGI [1] of 15000 nM and a GI50 [2] of 15700 nM. The TGI [2] was 54200 nM, the GI50 [3] was under 10 nM and the TGI [3] was 22400 nM. The GI50 [4] was under 10 nM, the TGI [4] was 11700 nM and the GI50 [5] was under 10 nM. The TGI [5] was 1910 nM, the GI50 [6] was under 10 nM and the TGI [6] was 6220 nM. It also gave a GI50 [7] of under 10 nM, a GI50 [8] of under 10 nM and a TGI [8] of 16800 nM. It also gave a GI50 [9] of under 10 nM, a TGI [9] of 13500 nM and a GI50 [10] of under 10 nM. It also gave a TGI [10] of under 10 nM, a GI50 [11] of under 10 nM and a TGI [11] of 1390 nM. The GI50 [12] was under 10 nM, the TGI [12] was 19700 nM and the GI50 [13] was under 10 nM. It also gave a TGI [13] of under 10 nM, a GI50 [14] of under 10 nM and a TGI [14] of 15300 nM. The TGI [15] was 9060 nM, the GI50 [16] was under 10 nM and the TGI [16] was 9650 nM. The GI50 [17] was under 10 nM, the TGI [17] was 4550 nM and the GI50 [18] was under 10 nM. The TGI [18] was over 40300 nM, the GI50 [19] was under 10 nM and the TGI [19] was 1220 nM. For the same molecule, the GI50 [20] was under 10 nM, the TGI [20] was 1400 nM and the GI50 [21] was under 10 nM. The TGI [21] was 1860 nM, the GI50 [22] was under 10 nM and the TGI [22] was 8740 nM. It also gave a GI50 [23] of under 10 nM, a TGI [23] of 17400 nM and a GI50 [24] of under 10 nM. For the same molecule, the TGI [24] was under 10 nM, the GI50 [25] was under 10 nM and the TGI [25] was under 10 nM. The GI50 [26] was under 10 nM, the TGI [26] was under 10 nM and the GI50 [27] was under 10 nM. The TGI [27] was over 35900 nM, the GI50 [28] was under 10 nM and the TGI [28] was 5820 nM. For the same molecule, the GI50 [29] was under 10 nM, the TGI [29] was 1250 nM and the GI50 [30] was under 10 nM. For the same molecule, the TGI [30] was 3650 nM, the GI50 [31] was under 10 nM and the TGI [31] was under 10 nM. It also gave a GI50 [32] of under 10 nM, a TGI [32] of under 10 nM and a GI50 [33] of under 10 nM. It also gave a TGI [33] of 6180 nM, a GI50 [34] of 1190 nM and a TGI [34] of 16900 nM. The GI50 [35] was under 10 nM, the TGI [35] was 10700 nM and the GI50 [36] was under 10 nM. It also gave a GI50 [37] of under 10 nM, a TGI [37] of over 40800 nM and a GI50 [38] of under 10 nM. For the same molecule, the TGI [38] was 19200 nM, the GI50 [39] was under 43.5 nM and the TGI [39] was 3830 nM. The GI50 [40] was under 10 nM, the TGI [40] was 14200 nM and the GI50 [41] was under 10 nM. It also gave a GI50 [42] of under 10 nM, a TGI [42] of under 10 nM and a GI50 [43] of under 10 nM. The TGI [43] was 630 nM, the GI50 [44] was 551 nM and the TGI [44] was 3720 nM. For the same molecule, the GI50 [45] was under 10 nM, the TGI [45] was 12400 nM and the GI50 [46] was under 10 nM. It also gave a TGI [46] of 5950 nM, a GI50 [47] of under 10 nM and a TGI [47] of 15100 nM. It also gave a GI50 [48] of under 10 nM, a TGI [48] of 2620 nM and a GI50 [49] of under 10 nM. For the same molecule, the GI50 [50] was under 10 nM, the TGI [50] was 15200 nM and the GI50 [51] was 2340 nM. For the same molecule, the TGI [51] was 80100 nM, the GI50 [52] was 2220 nM and the TGI [52] was 57100 nM. It also gave a GI50 [53] of under 10 nM, a TGI [53] of 9380 nM and a GI50 [54] of 1680 nM. It also gave a TGI [54] of 20300 nM, a GI50 [55] of under 10 nM and a TGI [55] of 2100 nM. For the same molecule, the GI50 [56] was under 10 nM and the TGI [56] was 12100 nM.
